Source: patent US20260053861A1, “CELL COMPOSITIONS AND METHODS OF USING THE SAME” (THE REGENTS OF THE UNIVERSITY OF CALIFORNIA, priority 2022, published 2026)
Counter-ions that a name gives are not always drawn.

test system: hPSC-SCs; conditions: not given

Going from `c1cncc(C2=NCCC2)c1` [Myosmine] to `CN(C)C(=O)Oc1cccc([N+](C)(C)C)c1` [Neostigmine bromide], the z.score.t rises from 0.9865 to 1.018.

First: Oc1ccc2c3c1O[C@H]1[C@@H](O)CC[C@@]4(O)[C@@H](C2)N(CC2CCC2)CC[C@]314 [Nalbuphine hydrochloride]
Second: Cl.Cl.c1ccc2c3c([nH]c2c1)C1C2CCC(C4CCCNC42)N1CC3 (stereo not drawn) [Nitrarine dihydrochloride]
The z.score.t of the first is lower: 0.1298 for the first, 0.3022 for the second.

Compared with `C[C@]12CC[C@H]3[C@@H](CCC4=CC(=O)CC[C@@H]43)[C@@H]1CC[C@@H]2O` [Nandrolone], `C=C1[C@H]2C[C@@]3([C@@H]1O)[C@@H](C[C@@H]2O)[C@]12[C@@H]4C[C@H]3[C@H]1N(CC)C[C@]4(C)CC[C@@H]2O` [Napelline] is lower in z.score.t: 1.306 for the first, 1.178 for the second.

Compared with `CNCCC(Oc1ccccc1OC)c1ccccc1` (stereo not drawn) [Nisoxetine hydrochloride], `CCN(CC)CCOC(=O)C1(c2ccc([N+](=O)[O-])cc2)CCCC1.Cl` [Nitrocaramiphen hydrochloride] is higher in z.score.t: 0.4318 for the first, 1.242 for the second.

Compound `C[C@@H]1[C@H](O)[C@@H](C)/C=C/C=C/CC/C=C/C=C/C=C/C=C/C(O[C@H]2O[C@H](C)[C@@H](O)[C@H](N)[C@@H]2O)CC2O[C@](O)(CC(O)C(O)CCC(O)CC(O)CC(O)CC(=O)O[C@H]1C)CC(O)C2C(=O)O` (stereo partly drawn) [Nystatine] has a z.score.t of 1.992.

same assay, conditions: HTS viability of hPSC-SCs in the presence of 30 mM glucose; Prestwick library; Table S4

Compared with `CC(=O)Oc1cc(C(C)C)c(OCCN(C)C)cc1C.Cl` [Moxisylyte hydrochoride], `Cc1ccccc1C(OCCN(C)C)c1ccccc1` (stereo not drawn) [Orphenadrine hydrochloride] is lower in z.score.t: 0.8757 for the first, −1.003 for the second.

Going from `COc1nc(C)nc(Cl)c1N=C1NCCN1` [Moxonidine] to `COc1ccc2[nH]c([S+]([O-])Cc3ncc(C)c(OC)c3C)nc2c1` (stereo not drawn) [Omeprazole], the z.score.t rises from −0.133 to 0.1344.

First: COc1c(C)c2c(c(O)c1C/C=C(\C)CCC(=O)O)C(=O)OC2 [Mycophenolic acid]
Second: CO[C@@H]1[C@@H](OC(N)=O)[C@@H](O)[C@H](Oc2ccc3c(O)c(NC(=O)c4ccc(O)c(CC=C(C)C)c4)c(=O)oc3c2C)OC1(C)C [Novobiocin sodium salt]
The z.score.t of the first is lower: −0.7775 for the first, 1.481 for the second.

First: O=c1c(O)c(-c2cc(O)c(O)c(O)c2)oc2cc(O)cc(O)c12 [Myricetin]
Second: O=C1C[C@@H](c2ccc(O)cc2)Oc2cc(O)cc(O)c21 [Naringenine]
The z.score.t of the first is lower: 0.713 for the first, 1.539 for the second.

First: CNc1ncnc2c1ncn2[C@@H]1O[C@H](CO)[C@@H](O)[C@H]1O [N6-methyladenosine]
Second: NC(=O)c1ccc[n+]([C@@H]2O[C@H](COP(=O)([O-])OP(=O)(O)OC[C@H]3O[C@@H](n4cnc5c(N)ncnc54)[C@H](O)[C@@H]3O)[C@@H](O)[C@H]2O)c1 [Nadide]
The z.score.t of the first is higher: 1.002 for the first, 0.453 for the second.

Going from `CC(=O)N[C@@H](CC(C)C)C(=O)O` [N-Acetyl-L-leucine] to `COC(=O)C1=C(C)NC(C)=C(C(=O)OCC(C)C)C1c1ccccc1[N+](=O)[O-]` (stereo not drawn) [Nisoldipine], the z.score.t falls from 0.2361 to −0.5992.

First: COc1ccc2cc(CCC(C)=O)ccc2c1 [Nabumetone]
Second: COc1ccc2cc([C@H](C)C(=O)O)ccc2c1 [Naproxen]
The z.score.t of the first is lower: 0.5365 for the first, 1.745 for the second.

First: CC1CCc2c(N3CCC(O)CC3)c(F)cc3c(=O)c(C(=O)O)cn1c23 (stereo not drawn) [Nadifloxacin]
Second: CC1COc2c(N3CCN(C)CC3)c(F)cc3c(=O)c(C(=O)O)cn1c23 (stereo not drawn) [Ofloxacin]
The z.score.t of the first is higher: −0.9598 for the first, −1.243 for the second.

Going from `CC(C)(C)NCC(O)COc1cccc2c1CC(O)C(O)C2` (stereo not drawn) [Nadolol] to `C=CCOc1ccccc1OCC(O)CNC(C)C` (stereo not drawn) [Oxprenolol hydrochloride], the z.score.t falls from 0.7349 to −1.046.

First: CCOc1ccc2ccccc2c1C(=O)N[C@@H]1C(=O)N2[C@@H]1SC(C)(C)[C@@H]2C(=O)O [Nafcillin sodium salt monohydrate]
Second: COC(=O)C1=C(C)NC(C)=C(C(=O)OCCN(C)Cc2ccccc2)C1c1cccc([N+](=O)[O-])c1 (stereo not drawn) [Nicardipine hydrochloride]
The z.score.t of the first is higher: 1.323 for the first, 0.2189 for the second.

Compared with `CCN(CC)CCOC(=O)C(Cc1cccc2ccccc12)CC1CCCO1` (stereo not drawn) [Nafronyl oxalate], `c1ccc2c(CC3=NCCN3)cccc2c1` [Naphazoline hydrochloride] is lower in z.score.t: 2.094 for the first, 0.7665 for the second.

Going from `CN(C/C=C/c1ccccc1)Cc1cccc2ccccc12` [Naftifine hydrochloride] to `COc1ccccc1N1CCN(CC(O)COc2cccc3ccccc23)CC1` (stereo not drawn) [Naftopidil dihydrochloride], the z.score.t rises from −1.168 to −0.9264.

Compared with `C=CCN1CC[C@]23c4c5ccc(O)c4O[C@H]2C(=O)CC[C@@]3(O)[C@H]1C5` [Naloxone hydrochloride], `O=C1CC[C@@]2(O)[C@H]3Cc4ccc(O)c5c4[C@@]2(CCN3CC2CC2)[C@H]1O5` [Naltrexone hydrochloride dihydrate] is lower in z.score.t: 0.84 for the first, 0.754 for the second.

Going from `C[C@@H]1O[C@@H](O[C@H]2[C@H](Oc3cc(O)c4c(c3)O[C@H](c3ccc(O)cc3)CC4=O)O[C@H](CO)[C@@H](O)[C@@H]2O)[C@H](O)[C@H](O)[C@H]1O` [Naringin hydrate] to `NC[C@@H]1O[C@H](O[C@H]2[C@@H](O)[C@H](O[C@@H]3[C@@H](O)[C@H](N)C[C@H](N)[C@H]3O[C@H]3O[C@H](CN)[C@@H](O)[C@H](O)[C@H]3N)O[C@@H]2CO)[C@H](N)[C@@H](O)[C@@H]1O.O=S(=O)(O)O` [Neomycin sulfate], the z.score.t falls from 1.659 to −0.6492.

Compared with `CN1CCOC(c2ccccc2)c2ccccc2C1` (stereo not drawn) [Nefopam hydrochloride], `CN1Cc2c(N)cccc2C(c2ccccc2)C1` (stereo not drawn) [Nomifensine maleate] is higher in z.score.t: −0.3733 for the first, −0.004573 for the second.

Going from `O=C(O)c1cccnc1` [Niacin] to `O=C(NCCO[N+](=O)[O-])c1cccnc1` [Nicorandil], the z.score.t rises from 0.4105 to 0.599.

First: O=C(CCNNC(=O)c1ccncc1)NCc1ccccc1 [Nialamide]
Second: O=C(O)CCc1nc(-c2ccccc2)c(-c2ccccc2)o1 [Oxaprozin]
The z.score.t of the first is lower: −0.7018 for the first, 0.0827 for the second.

First: CO[C@]12C[C@@H](COC(=O)c3cncc(Br)c3)CN(C)[C@@H]1Cc1cn(C)c3cccc2c13 [Nicergoline]
Second: Cc1nccn1CC1CCc2c(c3ccccc3n2C)C1=O (stereo not drawn) [Ondansetron Hydrochloride]
The z.score.t of the first is higher: −0.2131 for the first, −0.3173 for the second.

Going from `O=C(Nc1ccc([N+](=O)[O-])cc1Cl)c1cc(Cl)ccc1O` [Niclosamide] to `CS(=O)(=O)Nc1ccc([N+](=O)[O-])cc1Oc1ccccc1` [Nimesulide], the z.score.t rises from −1.794 to 2.111.

Going from `Cc1c(NC(=O)c2cccnc2)c(=O)n(-c2ccccc2)n1C` [Nifenazone] to `COc1ccc(C(=O)c2ccccc2)c(O)c1` [Oxybenzone], the z.score.t falls from −0.2425 to −0.6594.

Going from `O=C(O)c1cccnc1Nc1cccc(C(F)(F)F)c1` [Niflumic acid] to `COC(=O)Nc1nc2ccc(C(=O)c3cccs3)cc2[nH]1` [Nocodazole], the z.score.t falls from 0.5856 to −1.329.

Compared with `O=C(N/N=C/c1ccc([N+](=O)[O-])o1)c1ccc(O)cc1` [Nifuroxazide], `NC(=O)N/N=C/c1ccc([N+](=O)[O-])o1` [Nitrofural] is lower in z.score.t: 0.8023 for the first, 0.767 for the second.

First: CC1CS(=O)(=O)CCN1/N=C/c1ccc([N+](=O)[O-])o1 (stereo not drawn) [Nifurtimox]
Second: O=C1CN(/N=C/c2ccc([N+](=O)[O-])o2)C(=O)N1 [Nitrofurantoin]
The z.score.t of the first is higher: 1.522 for the first, −0.03449 for the second.

First: CC1(C)NC(=O)N(c2ccc([N+](=O)[O-])c(C(F)(F)F)c2)C1=O [Nilutamide]
Second: CCOC(=O)C1=C(C)NC(C)=C(C(=O)OC)C1c1cccc([N+](=O)[O-])c1 (stereo not drawn) [Nitrendipine]
The z.score.t of the first is lower: 0.1244 for the first, 0.6177 for the second.

Going from `COCCOC(=O)C1=C(C)NC(C)=C(C(=O)OC(C)C)C1c1cccc([N+](=O)[O-])c1` (stereo not drawn) [Nimodipine] to `CCN(CC)CCc1nc(-c2ccccc2)no1.O=C(O)CC(O)(CC(=O)O)C(=O)O` [Oxalamine citrate salt], the z.score.t rises from −1.245 to −0.3023.

Compared with `O=C1NCCN1c1ncc([N+](=O)[O-])s1` [Niridazole], `Cc1ncc([N+](=O)[O-])n1CC(O)CCl` (stereo not drawn) [Ornidazole] is lower in z.score.t: 2.422 for the first, 0.1446 for the second.

Compared with `CNC(=C[N+](=O)[O-])NCCSCc1csc(CN(C)C)n1` [Nizatidine], `CN(C(=O)CN(CCO)CC(=O)N(C)C(C)(C)Cc1ccccc1)C(C)(C)Cc1ccccc1` [Oxethazaine] is lower in z.score.t: −0.0788 for the first, −1.253 for the second.

Going from `CC(=O)O[C@]1(C(C)=O)CC[C@H]2[C@@H]3C=C(C)C4=CC(=O)CC[C@@H]4[C@H]3CC[C@@]21C` [Nomegestrol acetate] to `C#C[C@]1(O)CC[C@H]2[C@@H]3CCC4=CC(=O)CC[C@@H]4[C@H]3CC[C@@]21C` [Norethindrone], the z.score.t falls from 0.7296 to 0.2479.

Going from `CNCCC=C1c2ccccc2C=Cc2ccccc21` [Norcyclobenzaprine] to `CNCCC=C1c2ccccc2CCc2ccccc21` [Nortriptyline hydrochloride], the z.score.t falls from 0.465 to −1.753.

Going from `C#C[C@]1(O)CC[C@H]2[C@@H]3CCC4=C(CCC(=O)C4)[C@H]3CC[C@@]21C` [Norethynodrel] to `C#C[C@]1(O)CC[C@H]2[C@@H]3CCC4=CC(=O)CC[C@@H]4[C@H]3CC[C@@]21CC` [Norgestrel-(−)-D], the z.score.t falls from 1.857 to 0.0116.

First: CCn1cc(C(=O)O)c(=O)c2cc(F)c(N3CCNCC3)cc21 [Norfloxacin]
Second: CCn1cc(C(=O)O)c(=O)c2cc3c(cc21)OCO3 [Oxolinic acid]
The z.score.t of the first is lower: 0.3922 for the first, 1.315 for the second.

First: COc1ccc2c(c1OC)C(=O)O[C@@H]2[C@H]1c2c(cc3c(c2OC)OCO3)CCN1C [Noscapine]
Second: CN1CCCN=C1/C=C/c1cccc(O)c1.O=C(O)c1cc2ccccc2c(Cc2c(O)c(C(=O)O)cc3ccccc23)c1O [Oxantel pamoate]
The z.score.t of the first is higher: −0.3731 for the first, −0.3936 for the second.

First: CO[C@H]1C[C@H](O[C@H]2[C@H](C)[C@@H](O[C@@H]3O[C@H](C)C[C@H](N(C)C)[C@H]3O)[C@@H](C)C[C@@]3(CO3)C(=O)[C@H](C)[C@@H](O)[C@@H](C)[C@@H](C)OC(=O)[C@@H]2C)O[C@@H](C)[C@@H]1O [Oleandomycin phosphate]
Second: CCN(CC)CC#CCOC(=O)C(O)(c1ccccc1)C1CCCCC1 (stereo not drawn) [Oxybutynin chloride]
The z.score.t of the first is higher: −0.5417 for the first, −0.7013 for the second.
